For this assay, the system named is in vitro rat hearts. In words: Isolated perfused (Langendorff) rat heart, 25 min global ischemia and 180 min reperfusion: hemodynamics, infarct size, recovery of LVDP. As to conditions: for Effect on the cardioprotective effect of Tpo (infarct size, LVDP recovery): Glibenclamide 3 μM 15 min alone, then with Tpo 1.0 ng/ml 15 min prior to ischemia; for Effect on cardioprotection, drug alone: no Tpo. The procedure:
The study was directed to determining whether Tpo (0.01-10.0 ng/ml) confers immediate cardioprotection in rat hearts and the contribution of potassium channels to the underlying mechanism. Hearts from normoxic 8 week old Sprague Dawley rats (n=8/group) were isolated and perfused in the Langendorff mode. Hemodynamic function was recorded under steady-state conditions prior to 25 minutes global no flow ischemia and 180 minutes reperfusion.
Isolated heart perfusion. Isolated rat hearts were perfused with bicarbonate buffer at constant pressure in a retrograde manner and instrumented as described in Baker, et al., Am. J. Physiol. Heart Circulat. Physiol. 278:1395-1400, 2000 potassium channel blockers were added to this perfusate as needed. A 3-way tap, located immediately above the site of cannulation, allowed the entire perfusate to be diverted away from the heart to produce global, no-flow ischemia. Reperfusion was achieved by repositioning of the tap to allow perfusate to be delivered to the heart. Left ventricular function was monitored continuously throughout each experiment as described in Baker, et al., supra, 2000. End-diastolic pressure was initially set to 3 mmHg for 2 minutes. The balloon was then progressively inflated with a microsyringe to set end-diastolic pressures to 8 mmHg for the left ventricle, with developed pressure and heart rate recorded during steady-state conditions. Coronary flow rate was measured throughout the experiment by timed collections of the coronary effluent from the right side of the heart into a graduated cylinder. Coronary flow rate was expressed as milliliters per minute per gram wet weight.
Resistance to myocardial ischemia. Hearts from adult rats were perfused with bicarbonate buffer, and biventricular function was monitored continuously throughout each experiment as described in Baker, et al., supra, 2000. For concentration response studies, hearts were then perfused with Tpo (0.01-10.0 ng/ml) for 15 minutes prior to 25 minutes ischemia and 180 minutes reperfusion. For mechanism studies with potassium channel blockers, hearts were perfused with drugs for 15 minutes alone followed by 15 minutes in combination with Tpo prior to ischemia. Hearts perfused with potassium channel blockers alone in the absence of Tpo for 30 minutes prior to ischemia served as untreated controls for these studies. Recovery of post-ischemic left ventricular developed pressure was expressed as a percentage of its pre-drug, pre-ischemic value.
Assessment of ventricular function. Left ventricular function was monitored continuously throughout each experiment as described in Baker, et al., supra, 2000. Recovery of left ventricular pressure following ischemia was used to assess resistance to ischemia.
Measurement of infarct size/area at risk at 3 hours reperfusion were used to assess resistance to myocardial ischemia. For characterization of infarction size, hearts were perfused with 10 ml bicarbonate buffer containing triphenyltetrazolium chloride (SIGMA) at 37° C.
The heart was sectioned in 2 mm segments from apex to atrio-ventricular groove in a transverse fashion. Each segment was recorded and placed in formalin. After twenty-four (24) hours, the specimen was digitally photographed in a camera mount to normalize specimen-to-lens distance. Each photograph was then appended to Adobe Photoshop (Adobe™) to measure pixel density of infarcted versus non-infarcted areas. The percentage of infarction of each slide was expressed as a percentage of the entire area of the heart.
Hearts from male Sprague Dawley rats at 8 weeks of age were isolated and perfused with Tpo at 0.01, 0.1, 1.0, and 10 ng/ml for 15 minutes prior to 25 minutes global ischemia and 180 minutes reperfusion (FIG. 2). Tpo (1.0 ng/ml) reduced coronary flow rate prior to ischemia from 6±1 ml/min/g to 5±1 ml/min/g, increased left ventricular developed pressure from 119±15 mmHg to 151±19 mmHg and decreased heart rate from 240±34 beats/minute to 228±17 beats/minute. […]

From patent publication US8518883B2, “Method of reducing deleterious effects of ischemia by administration of a thrombopoietin receptor ligand” (MCW Research Foundation, Inc., priority 2006, dated 2013) come the findings set out here.

In the case of `COc1ccc(Cl)cc1C(=O)NCCc1ccc(S(=O)(=O)NC(=O)NC2CCCCC2)cc1` [Glibenclamide, reference compound], the “Effect on the cardioprotective effect of Tpo (infarct size, LVDP recovery)” value is reported as “completely abolished”. Besides, the “Effect on the cardioprotective effect of Tpo (infarct size, LVDP recovery)” value (listed as glibenclamide) is given as “completely prevented”. Also, the “Effect on cardioprotection, drug alone” value (Glibenclamide 3 μM alone) is “no effect”.
Consider `COC[C@H]1OC(=O)c2coc3c2[C@@]1(C)C1=C(C3=O)[C@@H]2CCC(=O)[C@@]2(C)C[C@H]1OC(C)=O` [Wortmannin, reference compound], for which, under “Wortmannin 100 nM alone”, the “Effect on cardioprotection, drug alone” value is “no effect”.
